This passage reports IC50 results from paper PMC11627005 (Febs Letters, 2024).

Common to all, as to format: biochemical
Assay [1] concerns the target E. coli respiratory complex I (proton-pumping NADH:ubiquinone oxidoreductase, NuoA to NuoN) (Escherichia coli, UniProt P0AFC7+P0AFD4+P33599, P33599:D325Q).
Assay [2] deals with E. coli respiratory complex I (proton-pumping NADH:ubiquinone oxidoreductase, NuoA to NuoN) (Escherichia coli, UniProt P0AFC7+P0AFD4+P33599, P33599:D325E).
Assay [3] addresses E. coli respiratory complex I (proton-pumping NADH:ubiquinone oxidoreductase, NuoA to NuoN) (Escherichia coli, UniProt P0AFC7+P0AFD4+P33599, P33599:D325N).
Assay [4] deals with E. coli respiratory complex I (proton-pumping NADH:ubiquinone oxidoreductase, NuoA to NuoN) (Escherichia coli, UniProt P0AFC7+P0AFD4+P33599, P33599:D325A).
The target of assay [5] is E. coli respiratory complex I (proton-pumping NADH:ubiquinone oxidoreductase, NuoA to NuoN) (Escherichia coli, UniProt P0AFC7+P0AFD4+P33599).

One may read the IC50 as the midpoint of a concentration-inhibition curve. A lower IC50 goes with greater potency in that assay.

For `C/C=C(\C)[C@H](O)[C@H](C)/C=C(C)/C=C/C/C(C)=C/Cc1nc(OC)c(OC)c(O)c1C` [piericidin A], the IC50 in assay [1] was found to be 16.9 ± 1.2 µM; in assay [2], 6.2 ± 0.5 µM; in assay [3], 17.4 ± 0.6 µM; in assay [4], 9.3 ± 0.8 µM; in assay [5] it was 3.5 ± 0.2 µM.
